The test concerns the target T1, KRAS-G12C/SOS1 (Homo sapiens, UniProt Q07889).
T1 construct: purchased Cisbio 63ADK000CB16PEG
T1 sequence (Q07889 1-1333): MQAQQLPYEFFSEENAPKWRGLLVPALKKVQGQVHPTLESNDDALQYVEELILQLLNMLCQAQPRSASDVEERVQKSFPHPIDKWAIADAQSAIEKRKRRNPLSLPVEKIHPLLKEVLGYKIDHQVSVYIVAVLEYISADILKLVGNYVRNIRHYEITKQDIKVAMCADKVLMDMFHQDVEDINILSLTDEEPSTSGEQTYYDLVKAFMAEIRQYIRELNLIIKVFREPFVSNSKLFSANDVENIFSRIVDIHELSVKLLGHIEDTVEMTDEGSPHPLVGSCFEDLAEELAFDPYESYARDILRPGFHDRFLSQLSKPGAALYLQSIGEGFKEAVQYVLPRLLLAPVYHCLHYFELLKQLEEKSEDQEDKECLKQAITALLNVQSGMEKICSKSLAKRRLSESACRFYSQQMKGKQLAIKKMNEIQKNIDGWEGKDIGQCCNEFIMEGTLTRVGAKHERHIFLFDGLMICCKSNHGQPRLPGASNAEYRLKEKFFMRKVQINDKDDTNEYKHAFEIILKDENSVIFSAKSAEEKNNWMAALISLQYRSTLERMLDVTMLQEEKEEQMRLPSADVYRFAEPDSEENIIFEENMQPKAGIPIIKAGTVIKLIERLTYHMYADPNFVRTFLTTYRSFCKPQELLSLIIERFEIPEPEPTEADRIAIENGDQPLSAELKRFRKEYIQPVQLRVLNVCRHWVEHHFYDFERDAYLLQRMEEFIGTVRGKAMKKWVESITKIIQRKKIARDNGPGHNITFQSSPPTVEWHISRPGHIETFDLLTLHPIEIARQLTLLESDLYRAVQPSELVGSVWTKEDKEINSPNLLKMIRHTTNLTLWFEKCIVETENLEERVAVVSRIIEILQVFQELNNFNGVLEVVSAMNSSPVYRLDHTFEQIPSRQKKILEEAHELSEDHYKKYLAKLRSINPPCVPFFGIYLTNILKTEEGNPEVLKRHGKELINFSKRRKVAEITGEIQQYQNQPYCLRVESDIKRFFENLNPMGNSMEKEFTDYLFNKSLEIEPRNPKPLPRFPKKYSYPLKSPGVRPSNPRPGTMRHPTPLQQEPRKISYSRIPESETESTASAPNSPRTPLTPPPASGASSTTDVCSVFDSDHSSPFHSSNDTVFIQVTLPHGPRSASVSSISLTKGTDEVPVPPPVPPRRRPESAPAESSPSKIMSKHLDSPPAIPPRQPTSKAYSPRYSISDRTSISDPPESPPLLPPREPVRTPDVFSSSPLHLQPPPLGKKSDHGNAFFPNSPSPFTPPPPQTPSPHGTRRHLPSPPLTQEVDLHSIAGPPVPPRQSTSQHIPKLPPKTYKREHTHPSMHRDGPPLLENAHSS
Put plainly: KRAS-G12C/SOS1 binding assay (HTRF). As to conditions: inhibition of KRAS-G12C/SOS1 binding. The method, then: Test Example 1: KRAS-G12C/SOS1 Binding Assay
The following method was used to determine the extent of inhibition of KRAS-G12C/SOS1 binding by the preferred compounds of the present invention under in vitro conditions. In this method, the competitive inhibition of KRAS-G12C/SOS1 binding by the preferred compounds was assayed by the homogeneous time-resolved fluorescence (HTRF) technology using the KRAS-G12C/SOS1 binding assay kit (Cisbio, 63ADK000CB16PEG).
The experimental procedures were as follows (refer to the kit instructions for details): the compounds of the present invention were each firstly dissolved in DMSO at a concentration of 20 mM, and then diluted in an equal gradient with a buffer in the kit, so that the final concentrations of the test compounds in the reaction system were in a range of 10000 nM-0.04 nM, and the final concentration of DMSO was 0.5%. 2 μL of the compounds were each incubated with 4 μL of 1×Tag1-SOS1, 4 μL of 1×Tag2-KRAS-G12C (containing 10 μM guanosine triphosphate, GTP) at 25° C. for 15 min. Then 5 μL of 1×Anti-Tag1-Tb3+ and 5 μL of 1×Anti-Tag2-XL665 were added to the reaction system, and the mixture was incubated on ice for 3 h. After the incubation, the fluorescence intensity of each well was measured at the excitation wavelength of 337 nm, the fluorescence intensity of each well was read at the emission wavelengths of 620 nm and 665 nm on a microplate reader EnVision (PerkinElmer, 2105) in an HTRF mode, and the Ratio value was calculated by the formula Ratio=(665 nm/620 nm)×[…]. The inhibition rates of the compounds at each concentration were calculated by comparing the fluorescence intensity ratio with that of the control group, and then nonlinear curve fitting was performed by GraphPad Prism 8 in the logarithmic concentration-inhibition rate to obtain the IC50 values of the compounds, as shown in Table 1.
Background: In TR-FRET formats the signal depends on donor and acceptor labels being close together.

The values that follow come from US20240261418A1, “SOS1 DEGRADING AGENT AND PREPARATION METHOD THEREFOR AND APPLICATION THEREOF” (SHANGHAI LEADINGTAC PHARMACEUTICAL CO. LTD., priority 2021, published 2024).

As for `COc1cc2nc(C)nc(N[C@H](C)c3cc(-c4c(Cl)cccc4CN(C)C)cs3)c2cc1[C@H]1CC[C@H](C(=O)N2CCN(CC3CCC4(CC3)CCN(C(=O)c3ccc(Cl)c(N5CCC(=O)NC5=O)c3)CC4)CC2)CC1` [Example 1, 1-(2-chloro-5-(9-((4-((1R,4R)-4-(4-(((R)-1-(4-(2-chloro-6-((dimethylamino)methyl)phenyl)thien-2-yl)ethyl)amino)-7-methoxy-2-methylquinazolin-6-yl)cyclohexane-1-carbonyl)piperazin-1-yl)methyl)-3-azaspiro[5.5]undecane-3-carbonyl)phenyl)dihydropyrimidine-2,4(1H,3H)-dione], the IC50 (as a rule, the concentration that inhibits the measured activity by half) is at most 15 nM. As for `COc1cc2nc(C)nc(N[C@H](C)c3cc(-c4c(Cl)cccc4CN(C)C)cs3)c2cc1[C@H]1CC[C@H](C(=O)N2CCC(CCOCC3CCN(C(=O)c4ccc(Cl)c(N5CCC(=O)NC5=O)c4)CC3)CC2)CC1` [Example 5, 1-(2-chloro-5-(4-((2-(1-((1R,4R)-4-(4-(((R)-1-(4-(2-chloro-6-((dimethylamino)methyl)phenyl)thien-2-yl)ethyl)amino)-7-methoxy-2-methylquinazolin-6-yl)cyclohexane-1-carbonyl)piperidin-4-yl)ethoxy)methyl)piperidine-1-carbonyl)phenyl)dihydropyrimidine-2,4(1H,3H)-dione], the IC50 was at most 15 nM.
